Data on five compounds can be found in ChEMBL document CHEMBL3808305, “Discovery of fused tricyclic core containing HCV NS5A inhibitors with pan-genotype activity” (Bioorg Med Chem Lett, 2016).

Data set [1] relates to Hepatitis C virus. The data set can be described thus: Antiviral activity against HCV genotype 3a assessed as decrease in HCV replicon RNA replication after 3 days in presence of 10% FBS by taqman assay based cell based replicon method. The conditions noted are these: 72 h. Type of data set: functional, organism-based, Hepacivirus hominis. Background: Replicon systems follow genome replication, usually without infectious particles.

The subject of data set [2] is Hepatitis C virus. The data set can be described thus: Antiviral activity against HCV genotype 1a expressing NS5A Y93H mutant assessed as decrease in HCV replicon RNA replication after 3 days in presence of 10% FBS by taqman assay based cell based replicon method. The conditions noted are these: subtype 1a, 72 h. Type of data set: functional, organism-based, Hepacivirus hominis.

The subject of data set [3] is Hepatitis C virus. Nature of the data set: Antiviral activity against HCV genotype 1b assessed as decrease in HCV replicon RNA replication after 3 days in presence of 10% FBS by taqman assay based cell based replicon method. Type of data set: functional, organism-based, Hepacivirus hominis. Particulars: 72 h.
Data set [4] deals with Hepatitis C virus. Nature of the data set: Antiviral activity against HCV genotype 1a assessed as decrease in HCV replicon RNA replication after 3 days in presence of 10% FBS by taqman assay based cell based replicon method. Type of data set: functional, organism-based, Hepacivirus hominis. The conditions noted are these: subtype 1a, 72 h.
In data set [5] the test system is Hepatitis C virus. The data set can be described thus: Antiviral activity against HCV genotype 2a assessed as decrease in HCV replicon RNA replication after 3 days in presence of 10% FBS by taqman assay based cell based replicon method. Type of data set: functional, organism-based, Hepacivirus hominis. Particulars: 72 h.
Data set [6] can be described thus: AUC in Sprague-Dawley rat at 5 mg/kg, po. The conditions noted are these: in vivo. Type of data set: ADME, organism-based.
Data set [7] in a line: Oral bioavailability in Sprague-Dawley rat at 5 mg/kg. The conditions noted are these: in vivo. Type of data set: ADME, organism-based.
For data set [8], the system named is Hepatitis C virus. The data set can be described thus: Antiviral activity against HCV genotype 1b assessed as decrease in HCV replicon RNA replication after 3 days by taqman assay based cell based replicon method. Type of data set: functional, organism-based, Hepacivirus hominis. The conditions noted are these: 72 h.
The subject of data set [9] is Hepatitis C virus. The data set can be described thus: Antiviral activity against HCV genotype 2a assessed as decrease in HCV replicon RNA replication after 3 days by taqman assay based cell based replicon method. Type of data set: functional, organism-based, Hepacivirus hominis. The conditions noted are these: 72 h.
Data set [10] is described as follows: Half life in Sprague-Dawley rat at 5 mg/kg, po or 2 mg/kg, iv. Particulars: in vivo. Type of data set: ADME, organism-based.
The subject of data set [11] is Hepatitis C virus. Nature of the data set: Antiviral activity against HCV genotype 1a expressing NS5A Y93H mutant assessed as decrease in HCV replicon RNA replication after 3 days by taqman assay based cell based replicon method. Type of data set: functional, organism-based, Hepacivirus hominis. Particulars: subtype 1a, 72 h.
For data set [12], the system named is Hepatitis C virus. The data set can be described thus: Antiviral activity against HCV genotype 1a assessed as decrease in HCV replicon RNA replication after 3 days by taqman assay based cell based replicon method. The conditions noted are these: subtype 1a, 72 h. Type of data set: functional, organism-based, Hepacivirus hominis.
Data set [13] is described as follows: Clearance in Sprague-Dawley rat at 5 mg/kg, po or 2 mg/kg, iv. Type of data set: ADME, organism-based. Particulars: in vivo.
The subject of data set [14] is Hepatitis C virus. Nature of the data set: Antiviral activity against HCV genotype 3a assessed as decrease in HCV replicon RNA replication after 3 days by taqman assay based cell based replicon method. Type of data set: functional, organism-based, Hepacivirus hominis. Particulars: 72 h.
The nature of data set [15]: Half life in Sprague-Dawley rat at 10 mg/kg, po or 2 mg/kg, iv. Type of data set: ADME, organism-based. The conditions noted are these: in vivo.
Data set [16] is described as follows: Clearance in Sprague-Dawley rat at 10 mg/kg, po or 2 mg/kg, iv. Type of data set: ADME, organism-based. Particulars: in vivo.
Data set [17] in a line: AUC in Sprague-Dawley rat at 10 mg/kg, po. Type of data set: ADME, organism-based. Particulars: in vivo.
Data set [18] can be described thus: Oral bioavailability in Sprague-Dawley rat at 10 mg/kg. Type of data set: ADME, organism-based. The conditions noted are these: in vivo.
The test system of data set [19] is Hepatitis C virus. Nature of the data set: Antiviral activity against HCV genotype 1a H77 expressing NS5A Y93H mutant infected in mouse HB1 cells assessed as decrease in HCV replicon RNA replication by taqman assay. Type of data set: functional, organism-based, Hepacivirus hominis. Particulars: genotype 1a H77, HB1.
The test system of data set [20] is Hepatitis C virus. The data set can be described thus: Antiviral activity against HCV genotype 1a H77 infected in mouse HB1 cells assessed as decrease in HCV replicon RNA replication after 3 days by taqman assay. Particulars: genotype 1a H77, HB1, 72 h. Type of data set: functional, organism-based, Hepacivirus hominis.
Data set [21] deals with Hepatitis C virus. Nature of the data set: Antiviral activity against HCV genotype 1b Con1 assessed as decrease in HCV replicon RNA replication by taqman assay based cell based replicon method. Type of data set: functional, organism-based, Hepacivirus hominis. The conditions noted are these: isolate Con1.
Data set [22] concerns Hepatitis C virus. Nature of the data set: Antiviral activity against HCV genotype 2a JFH assessed as decrease in HCV replicon RNA replication by taqman assay based cell based replicon method. Type of data set: functional, organism-based, Hepacivirus hominis. Particulars: subtype 2a JFH.
Data set [23] has as its system Hepatitis C virus. The data set can be described thus: Antiviral activity against HCV genotype 3a NC009824 assessed as decrease in HCV replicon RNA replication by taqman assay based cell based replicon method. Type of data set: functional, organism-based, Hepacivirus hominis.

In the case of `COC(=O)N[C@H](C(=O)N1CCC[C@H]1c1ncc(-c2ccc3c(c2)Oc2ccc(-c4cnc([C@@H]5CCCN5C(=O)[C@@H](NC(=O)OC)C(C)C)[nH]4)cc2C3C2CC2)[nH]1)C(C)C` (stereo partly specified), the EC50 in the data set with Hepatitis C virus [1] was 0.2 nM; with Hepatitis C virus [2], 46 nM; in the data set with Hepatitis C virus [3], 0.004 nM; in the data set on Hepatitis C virus [4] it was 0.03 nM; with Hepatitis C virus [5], 0.004 nM.
For `COC(=O)N[C@H](C(=O)N1CCC[C@H]1c1ncc(-c2ccc3c(c2)Oc2ccc(-c4cnc([C@@H]5CCCN5C(=O)[C@@H](NC(=O)OC)C(C)C)[nH]4)cc2S3)[nH]1)C(C)C`, the AUC in data set [6] stood at 1.1 µM·h. In [7], this compound had a bioavailability of 25%. Further, the EC50 with Hepatitis C virus [8] turned out to be 0.002 nM; in the data set on Hepatitis C virus [9], 0.06 nM; with Hepatitis C virus [11], 21 nM; in the data set on Hepatitis C virus [12], 0.04 nM; in the data set with Hepatitis C virus [14] it was 0.3 nM. The compound further had a half-life in data set [10] of 1.3 h. For the same compound, in data set [13], the clearance was 15 mL/min/kg.
As for `COC(=O)N[C@H](C(=O)N1CCC[C@H]1c1ncc(-c2ccc3c(c2)Oc2ccc(-c4cnc([C@@H]5CCCN5C(=O)[C@@H](NC(=O)OC)C(C)C)[nH]4)cc2O3)[nH]1)C(C)C`, in data set [6], the AUC amounted to 4.5 µM·h. This compound registered a bioavailability in data set [7] of 26%. Moreover, the EC50 in the data set with Hepatitis C virus [8] stood at 0.009 nM; in the data set on Hepatitis C virus [9], 0.01 nM; with Hepatitis C virus [11], 16 nM; in the data set on Hepatitis C virus [12], 0.01 nM. This compound gave a half-life in data set [10] of 1.4 h. The clearance in data set [13] amounted to 6.4 mL/min/kg.
Regarding `COC(=O)N[C@H](C(=O)N1CCC[C@H]1c1ncc(-c2ccc3c(c2)Oc2ccc(-c4cnc([C@@H]5CCCN5C(=O)[C@@H](NC(=O)OC)C(C)C)[nH]4)cc2N3C)[nH]1)C(C)C`, the EC50 in the data set on Hepatitis C virus [8] was found to be 0.007 nM; in the data set with Hepatitis C virus [9], 0.07 nM; with Hepatitis C virus [11], 70 nM; in the data set with Hepatitis C virus [12], 0.09 nM; in the data set with Hepatitis C virus [14], 0.3 nM. The compound also showed a half-life in data set [15] of 1.2 h. The compound also registered a clearance in data set [16] of 32 mL/min/kg. In addition, the AUC in [17] was 2.8 µM·h. For the same compound, the bioavailability in [18] turned out to be 69%.
For the compound `COC(=O)N[C@H](C(=O)N1CCC[C@H]1c1nc(-c2ccc3c(c2)O[C@@H](c2ccccc2)n2c-3cc3cc(-c4c[nH]c([C@@H]5CCCN5C(=O)[C@@H](NC(=O)OC)C(C)C)n4)ccc32)c[nH]1)C(C)C` [ELBASVIR], the EC50 with Hepatitis C virus [19] came out at 2 nM; in the data set on Hepatitis C virus [20], 0.004 nM; in the data set on Hepatitis C virus [21], 0.003 nM; with Hepatitis C virus [22], 0.003 nM; in the data set with Hepatitis C virus [23] it was 0.02 nM.

A word on the EC50: it is the concentration giving half of the maximal effect. One may read the AUC as the area under the concentration-time curve, a measure of exposure. Lower therefore signals low exposure. One may read the bioavailability as dose-corrected exposure relative to a reference, in per cent. Higher therefore signals much systemic uptake. As a reminder, the half-life is the time in which the quantity being followed falls by half. A higher half-life goes with slow loss.
